Drawing on ChEMBL document CHEMBL1155422, “SAR of tertiary carbinamine derived BACE1 inhibitors: role of aspartate ligand amine pKa in enzyme inhibition” (Bioorg Med Chem Lett, 2010), this text covers IC50 for 28 molecules.

pIC50: −log10 of the molar value. Where only a bound is given, the exact number is not on record here.

Experiment [1] addresses T1, Beta-secretase 1 (Homo sapiens, UniProt P56817). The experiment is described as follows: Inhibition of BACE1.
Experiment [2] has as its target T1, Beta-secretase 1. The experiment is described as follows: Inhibition of human BACE1 expressed in mouse fibroblast cells assessed as inhibition of secreted APPbeta-NF production at pH 7.2. It counts as cell-based.

T1 sequence (P56817 whole entry): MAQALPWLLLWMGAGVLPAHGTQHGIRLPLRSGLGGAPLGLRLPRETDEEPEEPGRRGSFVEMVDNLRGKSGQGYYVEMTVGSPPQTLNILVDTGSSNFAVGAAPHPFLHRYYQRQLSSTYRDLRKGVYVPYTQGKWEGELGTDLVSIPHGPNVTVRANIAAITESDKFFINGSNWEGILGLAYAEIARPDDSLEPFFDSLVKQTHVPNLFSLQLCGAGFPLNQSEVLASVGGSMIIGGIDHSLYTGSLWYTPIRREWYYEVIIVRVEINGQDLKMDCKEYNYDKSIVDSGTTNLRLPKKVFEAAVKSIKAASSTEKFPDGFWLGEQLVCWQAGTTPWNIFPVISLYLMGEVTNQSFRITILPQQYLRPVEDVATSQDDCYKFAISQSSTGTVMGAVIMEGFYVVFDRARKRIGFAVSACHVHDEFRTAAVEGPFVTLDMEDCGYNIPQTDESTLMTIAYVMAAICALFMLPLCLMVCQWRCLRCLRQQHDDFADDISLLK

The pIC50 is −log10 of the IC50, conventionally taken in molar units. The molecule `C[C@@H](NC(=O)c1cc(SCCC(N)(CO)Cc2ccccc2)cc(N(C)S(C)(=O)=O)c1)c1ccc(F)cc1` (some centres undefined) gave a pIC50 at Beta-secretase 1 [1] of less than 4.00.

Turning to `C[C@@H](NC(=O)c1cc(CNC[C@](N)(CO)Cc2ccccc2)cc(N(C)S(C)(=O)=O)c1)c1ccc(F)cc1`, the pIC50 was 5.46 on Beta-secretase 1 [2] and 5.00 against Beta-secretase 1 [1].

On to `C[C@@H](NC(=O)c1cc(COC[C@H](N)Cc2ccccc2)cc(N(C)S(C)(=O)=O)c1)c1ccc(F)cc1`, for which the pIC50 on Beta-secretase 1 [2] was 5.77; at Beta-secretase 1 [1], 5.00.

As to `C[C@@H](NC(=O)c1cc(COC(=O)C(C)(N)Cc2ccccc2)cc(N(C)S(C)(=O)=O)c1)c1ccc(F)cc1` (some centres undefined), the pIC50 at Beta-secretase 1 [2] was 6.79; against Beta-secretase 1 [1], 7.72.

`C[C@@H](NC(=O)c1cc(NCCC(N)(CO)Cc2ccccc2)cc(N(C)S(C)(=O)=O)c1)c1ccc(F)cc1` (some centres undefined) showed a pIC50 against Beta-secretase 1 [1] of less than 4.00.

As to `C[C@@H](NC(=O)c1cc(-c2ncc([C@](C)(N)Cc3ccccc3)o2)cc(N(C)S(C)(=O)=O)c1)c1ccc(F)cc1`, the pIC50 on Beta-secretase 1 [2] was 8.30; against Beta-secretase 1 [1] it was 8.15.

Consider `C[C@@H](NC(=O)c1cc(COC[C@](N)(CO)Cc2ccccc2)cc(N(C)S(C)(=O)=O)c1)c1ccc(F)cc1`, for which the pIC50 on Beta-secretase 1 [2] was 6.24; against Beta-secretase 1 [1], 5.86.

For `C[C@@H](NC(=O)c1cc(COCC(N)(CF)Cc2ccccc2)cc(N(C)S(C)(=O)=O)c1)c1ccc(F)cc1` (mixture of isomers), the pIC50 is 6.36 on Beta-secretase 1 [2] and 6.00 at Beta-secretase 1 [1].

On Beta-secretase 1 [1], `C[C@@H](NC(=O)c1cc(N(C)S(C)(=O)=O)cc(-n2cc([C@](C)(N)Cc3ccccc3)nn2)c1)c1ccc(F)cc1` showed a pIC50 of 4.79.

In the case of `CCC(N)(COCc1cc(C(=O)N[C@H](C)c2ccc(F)cc2)cc(N(C)S(C)(=O)=O)c1)Cc1ccccc1` (mixture of isomers), the pIC50 on Beta-secretase 1 [1] was 4.66.

`COCC(N)(COCc1cc(C(=O)N[C@H](C)c2ccc(F)cc2)cc(N(C)S(C)(=O)=O)c1)Cc1ccccc1` (mixture of isomers): the pIC50 on Beta-secretase 1 [1] is less than 4.00.

For `C[C@@H](NC(=O)c1cc(-c2n[nH]c([C@](C)(N)Cc3ccccc3)n2)cc(N(C)S(C)(=O)=O)c1)c1ccc(F)cc1`, the pIC50 is 5.32 at Beta-secretase 1 [2] and 6.09 at Beta-secretase 1 [1].

`CNC(CO)(COC(=O)c1cc(C(=O)N[C@H](C)c2ccc(F)cc2)cc(N(C)S(C)(=O)=O)c1)Cc1ccccc1` (some centres undefined) gave a negative-log IC50 (pIC50) at Beta-secretase 1 [1] of less than 4.00.

For `C[C@@H](NC(=O)c1cc(CCC[C@](N)(CO)Cc2ccccc2)cc(N(C)S(C)(=O)=O)c1)c1ccc(F)cc1`, on Beta-secretase 1 [1], the pIC50 was 4.65.

In turn, `C[C@@H](NC(=O)c1cc(-c2nc([C@](C)(N)Cc3ccccc3)no2)cc(N(C)S(C)(=O)=O)c1)c1ccc(F)cc1` gave a pIC50 on Beta-secretase 1 [1] of 5.74.

`C[C@@H](NC(=O)c1cc(CNC(=O)C(N)(CO)Cc2ccccc2)cc(N(C)S(C)(=O)=O)c1)c1ccc(F)cc1` (some centres undefined) gave a pIC50 on Beta-secretase 1 [1] of 4.74.

As to `C[C@@H](NC(=O)c1cc(-c2ccc(C(C)(N)Cc3ccccc3)o2)cc(N(C)S(C)(=O)=O)c1)c1ccc(F)cc1` (mixture of isomers), the results for the pIC50 at Beta-secretase 1 [2] and against Beta-secretase 1 [1] were 8.40 and 7.70, respectively.

Turning to `C[C@@H](NC(=O)c1cc(C(=O)OCC(O)(CN)Cc2ccccc2)cc(N(C)S(C)(=O)=O)c1)c1ccc(F)cc1` (some centres undefined), the pIC50 against Beta-secretase 1 [1] was 4.65.

In turn, `C[C@@H](NC(=O)c1cc(-c2noc([C@](C)(N)Cc3ccccc3)n2)cc(N(C)S(C)(=O)=O)c1)c1ccc(F)cc1` showed a pIC50 at Beta-secretase 1 [1] of 5.69.

With `C[C@@H](NC(=O)c1cc(C(=O)NCC(N)(CO)Cc2ccccc2)cc(N(C)S(C)(=O)=O)c1)c1ccc(F)cc1` (some centres undefined), the pIC50 against Beta-secretase 1 [1] is 4.97.

As for `C[C@@H](NC(=O)c1cc(COC(=O)C(N)(CO)Cc2ccccc2)cc(N(C)S(C)(=O)=O)c1)c1ccc(F)cc1` (some centres undefined), the pIC50 on Beta-secretase 1 [2] is 6.16; at Beta-secretase 1 [1], 6.51.

Molecule `C[C@@H](NC(=O)c1cc(N(C)S(C)(=O)=O)cc(S(=O)(=O)CCC(N)(CO)Cc2ccccc2)c1)c1ccc(F)cc1` (some centres undefined) had a pIC50 against Beta-secretase 1 [1] of less than 4.00.

With `C[C@@H](NC(=O)c1cc(OCCC(N)(CO)Cc2ccccc2)cc(N(C)S(C)(=O)=O)c1)c1ccc(F)cc1` (some centres undefined), the pIC50 against Beta-secretase 1 [1] is 4.15.

On to `C[C@@H](NC(=O)c1cc(COC[C@](C)(N)Cc2ccccc2)cc(N(C)S(C)(=O)=O)c1)c1ccc(F)cc1`, for which the pIC50 at Beta-secretase 1 [2] was 6.86; against Beta-secretase 1 [1] it was 6.46.

In turn, `C[C@@H](NC(=O)c1cc(C(=O)NCC(O)(CO)Cc2ccccc2)cc(N(C)S(C)(=O)=O)c1)c1ccc(F)cc1` (some centres undefined) had a negative-log IC50 (pIC50) against Beta-secretase 1 [1] of 4.60.

As for `C[C@@H](NC(=O)c1cc(-c2nnc([C@](C)(N)Cc3ccccc3)s2)cc(N(C)S(C)(=O)=O)c1)c1ccc(F)cc1`, the pIC50 at Beta-secretase 1 [1] was 4.52.

On Beta-secretase 1 [1], `C[C@@H](NC(=O)c1cc(CNC(=O)C(C)(N)Cc2ccccc2)cc(N(C)S(C)(=O)=O)c1)c1ccc(F)cc1` (some centres undefined) had a pIC50 of 5.24.

As to `C[C@@H](NC(=O)c1cc(COCC(N)(Cc2ccccc2)C(F)F)cc(N(C)S(C)(=O)=O)c1)c1ccc(F)cc1` (mixture of isomers), the pIC50 on Beta-secretase 1 [2] is less than 4.70; against Beta-secretase 1 [1] it was 6.03.
